From patent publication US9290486B1, “Compositions and methods for the treatment of epilepsy” (CELLIX BIO PRIVATE LIMITED, priority 2014, dated 2016)
Read-outs that look alike come from different tables or passages of the source.

Assay: Blood and cerebrospinal fluid pharmacokinetics after acute intraperitoneal administration in freely moving rats
Format: in vivo
Conditions: for serum and CSF concentrations versus dose: intraperitoneal, 20, 40 and 80 mg/kg; for Elimination half-life (t1/2)-CSF (Mean) / penetration of the blood brain barrier / Elimination half-life (t1/2)-Serum (Mean): intraperitoneal; for penetration of the blood brain barrier: appearance in serum and CSF; for Tmax: rat, ip, acute intraperitoneal, 20, 40 and 80 mg/kg
Procedure: Blood and Cerebrospinal Fluid Pharmacokinetics in Comparison of the Levetiracetam and Formula II (2-1) in Rats
The temporal pharmacokinetic interrelationship of levetiracetam and Formula II (2-1) in blood and cerebrospinal fluid (CSF) was studied after acute intraperitoneal administration of levetiracetam and Formula II (2-1), (20, 40 and 80 mg/kg), using an animal model that permits concurrent blood and CSF sampling in freely moving rats.

[1] = cerebrospinal fluid, read-out: Tmax mean range, CSF
[2] = serum, read-out: time to maximum concentration (Tmax) mean range, serum

Row | Compound | serum and CSF concentrations versus dose | Elimination half-life (t1/2)-CSF (Mean) [h] | penetration of the blood brain barrier | Elimination half-life (t1/2)-Serum (Mean) (serum) [h] | Tmax [1] [h] | Tmax [2] [h]
1 | CC[C@@H](C(N)=O)N1CCCC1=O [levetiracetam] | rose essentially linearly and dose-dependently | 4.4 to 4.9 | ready penetration of the blood brain barrier | 1.8 to 2.8 | 1.33 to 1.92 | 0.25 to 0.5
2 | CC[C@@H](C(=O)NC(=O)OC(C)OC(=O)CCCC[C@@H]1CCSS1)N1CCCC1=O (stereo partly drawn) [Formula II (2-1)] | rose essentially linearly and dose-dependently | 4.8 to 5.6 | ready penetration of the blood brain barrier | 2.3 to 3.4 | 2.14 to 2.83 | 0.47 to 0.89
